Laboratory results: ChEMBL document CHEMBL5236643, “Discovery and characterization of orally bioavailable 4-chloro-6-fluoroisophthalamides as covalent PPARG inverse-agonists” (Bioorg Med Chem, 2023)
pEC50, pIC50: −log10 of the molar value. Values after ≈ are worked out from the molar mass of the structure shown. One block for each molecule: values may come before it. Active and inactive are the calls of the source. No cut-off for these calls is given here.

What was measured:
[1] = Antiproliferative activity against human UM-UC-9 assessed as inhibition of cell proliferation measured after 7 days by IncuCyte live-cell imaging assay; settings: UM-UC-9, 168 h
[2] = biological target: T1, Peroxisome proliferator-activated receptor gamma (Homo sapiens, UniProt P37231); assay: Inverse agonist activity at GST tagged human PPARgamma LBD (231 to 505 residues) expressed in Escherichia coli BL21(DE3) assessed as recruitment of fluorescein labeled corepressor NCOR2 Smrt-ID2 peptide to PPARgamma LBD incubated for 24 hrs by LanthaScreen TR-FRET assay
T1 sequence (P37231 whole entry): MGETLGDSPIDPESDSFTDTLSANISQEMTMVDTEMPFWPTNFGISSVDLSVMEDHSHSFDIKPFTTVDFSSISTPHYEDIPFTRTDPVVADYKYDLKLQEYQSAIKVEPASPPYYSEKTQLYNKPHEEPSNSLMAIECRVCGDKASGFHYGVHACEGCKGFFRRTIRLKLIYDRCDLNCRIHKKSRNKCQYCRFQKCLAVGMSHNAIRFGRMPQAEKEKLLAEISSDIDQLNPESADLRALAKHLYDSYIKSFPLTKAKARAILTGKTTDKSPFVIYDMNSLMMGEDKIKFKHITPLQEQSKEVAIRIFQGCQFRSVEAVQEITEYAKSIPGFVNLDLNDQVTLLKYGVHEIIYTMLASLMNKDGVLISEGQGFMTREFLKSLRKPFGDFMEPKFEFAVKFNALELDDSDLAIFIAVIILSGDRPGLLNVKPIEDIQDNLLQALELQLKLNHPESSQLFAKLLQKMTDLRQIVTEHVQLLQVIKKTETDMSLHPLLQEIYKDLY

[3] = Antiproliferative activity against human UM-UC-9 assessed as inhibition of cell proliferation by measuring maximum efficacy after 7 days by IncuCyte live-cell imaging assay; assay type: functional; settings: UM-UC-9, 168 h, time 7 day
[4] = biological target: T2, Peroxisome proliferator-activated receptor delta (Homo sapiens, UniProt Q03181); assay: Inverse agonist activity at human PPARdelta expressed in CHO cells co-expressing GAL4-NHR-LBD assessed as transcriptional repression preincubated for 6 hrs followed by luciferin addition by luminescence method; assay type: cell-based
T2 sequence (Q03181 whole entry): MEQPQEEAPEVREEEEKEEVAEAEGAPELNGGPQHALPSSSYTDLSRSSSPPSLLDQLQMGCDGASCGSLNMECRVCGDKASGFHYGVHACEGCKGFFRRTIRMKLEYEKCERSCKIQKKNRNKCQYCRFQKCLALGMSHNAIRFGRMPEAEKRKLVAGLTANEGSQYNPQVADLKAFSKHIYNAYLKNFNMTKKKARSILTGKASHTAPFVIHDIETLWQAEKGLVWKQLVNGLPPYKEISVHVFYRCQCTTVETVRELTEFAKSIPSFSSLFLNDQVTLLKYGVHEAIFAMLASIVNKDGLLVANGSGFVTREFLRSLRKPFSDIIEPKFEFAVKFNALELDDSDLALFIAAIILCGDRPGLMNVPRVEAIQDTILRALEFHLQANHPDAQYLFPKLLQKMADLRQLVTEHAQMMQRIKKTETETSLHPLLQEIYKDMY

[5] = biological target: T3, Peroxisome proliferator-activated receptor alpha (Homo sapiens) (UniProt Q07869); assay: Agonist activity at human PPARalpha expressed in CHO cells co-expressing GAL4-NHR-LBD assessed as transcriptional activation by measuring maximum efficacy preincubated for 6 hrs followed by luciferin addition by luminescence method; assay type: cell-based; settings: filed as agonist
T3 sequence (whole entry): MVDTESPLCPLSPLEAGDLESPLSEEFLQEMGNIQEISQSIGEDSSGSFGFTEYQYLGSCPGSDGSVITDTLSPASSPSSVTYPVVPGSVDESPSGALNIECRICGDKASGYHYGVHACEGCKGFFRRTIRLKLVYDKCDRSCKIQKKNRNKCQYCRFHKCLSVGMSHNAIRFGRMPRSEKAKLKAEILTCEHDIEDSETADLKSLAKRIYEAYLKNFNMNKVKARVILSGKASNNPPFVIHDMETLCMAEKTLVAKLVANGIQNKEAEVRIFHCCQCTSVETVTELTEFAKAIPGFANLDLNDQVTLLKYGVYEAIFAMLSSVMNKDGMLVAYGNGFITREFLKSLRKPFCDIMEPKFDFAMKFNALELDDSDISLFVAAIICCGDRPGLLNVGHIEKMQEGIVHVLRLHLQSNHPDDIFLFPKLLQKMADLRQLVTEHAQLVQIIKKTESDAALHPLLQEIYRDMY

[6] = biological target: T4, Peroxisome proliferator-activated receptor alpha (Homo sapiens, UniProt Q07869); assay: Agonist activity at human PPARalpha expressed in CHO cells co-expressing GAL4-NHR-LBD assessed as transcriptional activation preincubated for 6 hrs followed by luciferin addition by luminescence method; assay type: cell-based
T4 sequence (Q07869 whole entry): T3 sequence (whole entry)

[7] = biological target: T1, Peroxisome proliferator-activated receptor gamma; assay: Inverse agonist activity at human PPARgamma in human RT112/84 transfected with NLuc-fused FABP4 assessed as reduction in PPARgamma transactivation incubated for 6 to 18 hrs by Nano-Glo luciferase assay; assay type: cell-based
[8] = biological target: T5, Peroxisome proliferator-activated receptor gamma (Mus musculus) (UniProt P37238); assay: Inverse agonist activity at PPARgamma in NMRI-nu/nu mouse assessed as reduction in Fabp4 mRNA expression in adipose tissue at 100 mg/kg for 3 days and measured 6 hrs last dose by qPCR analysis; assay type: organism-based; settings: time 3.0 day
T5 sequence (whole entry): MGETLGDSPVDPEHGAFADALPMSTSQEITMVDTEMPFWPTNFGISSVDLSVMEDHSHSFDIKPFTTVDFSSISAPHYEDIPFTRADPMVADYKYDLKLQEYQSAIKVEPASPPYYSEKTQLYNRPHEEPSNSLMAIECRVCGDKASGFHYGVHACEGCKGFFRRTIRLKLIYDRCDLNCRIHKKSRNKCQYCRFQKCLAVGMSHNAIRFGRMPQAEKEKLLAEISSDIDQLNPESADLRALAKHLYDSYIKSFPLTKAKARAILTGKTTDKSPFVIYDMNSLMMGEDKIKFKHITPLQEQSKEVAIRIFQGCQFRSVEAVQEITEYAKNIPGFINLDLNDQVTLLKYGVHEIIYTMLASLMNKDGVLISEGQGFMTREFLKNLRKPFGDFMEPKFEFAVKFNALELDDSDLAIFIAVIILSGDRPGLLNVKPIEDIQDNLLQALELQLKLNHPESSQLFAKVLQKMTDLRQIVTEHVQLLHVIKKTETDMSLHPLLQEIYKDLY

[9] = Stability of compound in cysteine at pH 7.4 assessed as parent compound remaining at 10 mM and measured after 1 hrs by HPLC-UV analysis; assay type: physicochemical; settings: cysteine solution, read-out: Stability
[10] = Stability of compound in GSH at pH 7.4 assessed as parent compound remaining at 10 mM and measured after 4 hrs by HPLC-UV analysis; assay type: physicochemical; settings: GSH solution, read-out: Stability
[11] = biological target: T6, Nuclear receptor subfamily 1 group I member 2 (Homo sapiens, UniProt O75469); assay: Transactivation of human PXR in human HepG2 cells co-expressing luciferase gene under control of CYP3A4 promoter assessed as increase in luciferase activity incubated for 24 hrs by luminescence based analysis; assay type: ADME, cell-based
T6 sequence (O75469 whole entry): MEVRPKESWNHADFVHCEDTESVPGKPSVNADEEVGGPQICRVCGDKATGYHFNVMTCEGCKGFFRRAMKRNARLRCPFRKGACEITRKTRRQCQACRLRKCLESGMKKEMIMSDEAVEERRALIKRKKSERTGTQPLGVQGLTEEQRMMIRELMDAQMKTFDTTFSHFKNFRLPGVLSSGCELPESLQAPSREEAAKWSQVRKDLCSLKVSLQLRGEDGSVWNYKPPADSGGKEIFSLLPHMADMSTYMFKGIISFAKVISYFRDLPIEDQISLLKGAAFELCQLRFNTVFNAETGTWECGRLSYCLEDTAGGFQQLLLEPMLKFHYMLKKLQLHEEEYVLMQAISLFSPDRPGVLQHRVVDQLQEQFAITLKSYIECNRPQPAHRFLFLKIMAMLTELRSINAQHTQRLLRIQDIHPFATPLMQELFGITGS

[12] = Microsomal stability in human liver microsomes assessed as intrinsic clearance at 1 uM measured upto 60 mins in presence of NADPH by HPLC-MS/MS analysis; assay type: ADME, Microsome; settings: read-out: CLH (converted)
[13] = Stability of compound in cysteine at pH 7.4 assessed as parent compound remaining at 10 mM and measured after 4 hrs by HPLC-UV analysis; assay type: physicochemical; settings: cysteine solution, read-out: Stability
[14] = Stability of compound in GSH at pH 7.4 assessed as parent compound remaining at 10 mM and measured after 24 hrs by HPLC-UV analysis; assay type: physicochemical; settings: GSH solution, read-out: Stability
[15] = Half life in Wistar rat at 0.3 mg/kg,iv measured upto 24 hrs by HPLC-MS/MS analysis; assay type: ADME, organism-based; settings: in vivo
[16] = Thermodynamic solubility of compound at pH 6.5 PBS buffer; assay type: physicochemical; settings: read-out: Therm_solubility
[17] = Cmax in NMRI-nu/nu mouse at 100 mg/kg,po measured upto 24 hrs by HPLC-MS/MS analysis; assay type: ADME, organism-based; set-up: time < 24 hrs, dose 100 mg/kg, route po; settings: in vivo
[18] = Stability of compound in cysteine at pH 7.4 assessed as parent compound remaining at 10 mM and measured after 24 hrs by HPLC-UV analysis; assay type: physicochemical; settings: cysteine solution, read-out: Stability
[19] = Clearance in Wistar rat at 0.3 mg/kg,iv measured upto 24 hrs by HPLC-MS/MS analysis; assay type: ADME, organism-based; settings: in vivo
[20] = Apparent permeability across basolateral to apical side in human Caco-2 cells at 2 uM incubated for 2 hrs by LC-MS/MS analysis; assay type: ADME, cell-based
[21] = Stability of compound in GSH at pH 7.4 assessed as parent compound remaining at 10 mM and measured after 1 hrs by HPLC-UV analysis; assay type: physicochemical; settings: GSH solution, read-out: Stability
[22] = Volume of distribution at steady state in Wistar rat at 0.3 mg/kg,iv measured upto 24 hrs by HPLC-MS/MS analysis; assay type: ADME, organism-based; settings: in vivo, read-out: Vdss
[23] = AUClast in Wistar rat at 0.3 mg/kg,iv measured upto 24 hrs by HPLC-MS/MS analysis; assay type: ADME, organism-based; set-up: dose 0.3 mg/kg, time < 24 hrs, route iv; settings: in vivo
[24] = Tmax in NMRI-nu/nu mouse at 100 mg/kg,po measured upto 24 hrs by HPLC-MS/MS analysis; assay type: ADME, organism-based; settings: in vivo
[25] = Stability in rat hepatocytes assessed as intrinsic clearance at 1 uM incubated for 1 hr by HPLC-MS/MS analysis; assay type: ADME, cell-based, Hepatocyte; settings: read-out: CLH (converted)
[26] = Stability of compound in GSH at pH 7.4 assessed as parent compound remaining at 10 mM and measured after 2 hrs by HPLC-UV analysis; assay type: physicochemical; settings: GSH solution, read-out: Stability
[27] = AUClast in NMRI-nu/nu mouse at 100 mg/kg,po measured upto 24 hrs by HPLC-MS/MS analysis; assay type: ADME, organism-based; set-up: time < 24 hrs, dose 100 mg/kg, route po; settings: in vivo
[28] = Stability of compound in cysteine at pH 7.4 assessed as parent compound remaining at 10 mM and measured after 2 hrs by HPLC-UV analysis; assay type: physicochemical; settings: cysteine solution, read-out: Stability

- pEC50 [2]: 6.64
Structure (SMILES): Cc1cccc(-c2nc3cc(NC(=O)c4cc(C(=O)NCc5ccc(F)c(F)c5)c(F)cc4Cl)ccc3o2)c1
- pIC50 [1]: 7.73
- Emax [3]: 93%

- pIC50 [4]: < 5.30
- Emax [5]: 289%
- pIC50 [6]: 5.53
Structure (SMILES): O=C(Nc1ccncc1)c1cc([N+](=O)[O-])ccc1Cl

- pIC50 [7]: < 5.30
- pEC50 [2]: < 5.30
Structure (SMILES): O=C(NCc1ccccc1)c1cc(Cl)cc(C(=O)Nc2ccccc2)c1

- pIC50 [7]: < 5.30
- pEC50 [2]: < 4.48
Structure (SMILES): Cc1cc(C(=O)NCc2ccccc2)cc(C(=O)Nc2ccccc2)c1Cl

- pIC50 [7]: < 5.30
- pEC50 [2]: 5.14
Structure (SMILES): O=C(NCc1ccc(Cl)cc1)c1ccc(Cl)c(C(=O)Nc2ccccc2)c1

- pEC50 [2]: 7.51
Structure (SMILES): COCCOCc1cc(F)ccc1CNC(=O)c1cc(C(=O)Nc2ccc(C(F)(F)F)cc2C)c(Cl)cc1F

- Activity [8]: inactive
- remaining at 1 h, 10000 µM [9]: 100%
- remaining at 4 h, 10000 µM [10]: 100%
- pIC50 [11]: < 4.30
- CLint scaled at 1 µM [12]: 0.88 L/h/kg
- remaining at 4 h, 10000 µM [13]: 100%
- remaining at 24 h, 10000 µM [14]: 100%
- half-life [15]: 0.21 h
- solubility thermodynamic [16]: 1.6 µg/mL (≈ 3.08 µM)
- Cmax [17]: 0.073 µM
- remaining at 24 h, 10000 µM [18]: 100%
- clearance [19]: 2.8 L/h/kg
- Papp B→A at 2 h, 2 µM [20]: 109 nm/s
- remaining at 1 h, 10000 µM [21]: 100%
- Vd [22]: 0.84 L/kg
- AUClast [23]: 0.35 kg·h/L
- Tmax [24]: 7 h
- CLint scaled at 1 µM [25]: 2.55 L/h/kg
- remaining at 2 h, 10000 µM [26]: 100%
- AUC(0-t) at 24 h [27]: 0.52 µg·h/mL
- remaining at 2 h, 10000 µM [28]: 100%
Structure (SMILES): Cc1cc(N2CCOCC2)cnc1NC(=O)c1cc(C(=O)NCc2ccc(F)c(F)c2)c(F)cc1Cl
- pIC50 [1]: 7.01
- Emax [3]: 99%

- pEC50 [2]: 5.76
Structure (SMILES): O=C(NCc1ccc(F)c(F)c1)c1ccc(Cl)c(C(=O)Nc2ccccc2)c1
- Emax [3]: 103%

- pIC50 [7]: < 5.30
- pEC50 [2]: < 5.30
Structure (SMILES): O=C(NCc1ccccc1)c1ccc(F)c(C(=O)Nc2ccccc2)c1
